Legend:
Type in all cases: cell-based
human normal fibroblasts [1] = assay: Promotion of collagen biosynthesis (procollagen type-I C-peptide, PICP, in supernatant); conditions: 10 ppm, 48 hours, control group 125
Protocol: In order to examine the effect on the promotion of collagen biosynthesis that reduces wrinkles and enhances skin elasticity, human normal fibroblasts were seeded into a 96-well microplate at a density of 1×10^4 cells/well, and incubated in DMEM (Dulbecco's Modified Eagle's Medium) medium for 24 hours. After incubation, the medium was replaced with serum-free DMEM media containing 10 ppm of each of dehydroabietic acid (Comparative Example 1), compound K (Comparative Example 2), and a mixture of dehydroabietic acid and compound K (weight ratio of 1:7; Example 1) and then the cells were further incubated for 48 hours. At 24 hours before completion of the incubation, 10 μM ascorbic acid as the positive control was added to each well to promote collagen synthesis. After completion, each well was washed, and the medium was replaced with serum-free DMEM medium, after which the cells were further incubated for 24 hours. After incubation, the supernatant of each well was collected, and the amount of procollagen type-I C-peptide (PICP) in the supernatant was measured using a kit (Takara, Kyoto, Japan) to determine the amount of newly synthesized collagen.

human normal fibroblasts [2] = assay: Inhibition of lipofuscin accumulation in skin cells (lipofuscin fluorescence); conditions: for Absorbance (570 nm): 10 ppm, after 10 passages of subculture, excitation 360 nm, emission 570 nm, control group 0.650; for inhibition at 10 ppm: Homo sapiens, Fibroblast, after 10 passages, relative to control group (equation 2), read-out: Lipofusin accumulation inhibition rate (%)
Protocol: In order to examine the effect on the inhibition of lipofuscin accumulation that prevents aging, human normal fibroblasts were seeded into a 96-well microplate at a density of 1×10^4 cells/well, and incubated in DMEM (Dulbecco's Modified Eagle's Medium) medium for 24 hours. After incubation, the medium was replaced with serum-free DMEM media containing 10 ppm of each of dehydroabietic acid (Comparative Example 1), compound K (Comparative Example 2), and a mixture of dehydroabietic acid and compound K (weight ratio of 1:7; Example 1). Then, the cells were subcultured in a fresh medium every 48 hours. After 10 passages of subculture, the fluorescence of the self-luminescent protein lipofuscin in the cells was measured using a microplate reader with the excitation wavelength of 360 nm and the emission wavelength of 570 nm. Based on the experiment results, the effect on inhibition of lipofuscin accumulation was calculated using the following equation 2. [formula]

human normal fibroblasts [3] = assay: Skin cell proliferation (MTT assay); conditions: 10 ppm, 24 hours; for Cell proliferation effect (%): relative to control group (equation 1); for Absorbance (570 nm): MTT, serum-free DMEM, control group 0.355
Protocol: In order to examine the effect on skin cell proliferation that reduces wrinkles and enhances skin elasticity, human normal fibroblasts were seeded into a 96-well microplate at a density of 1×10^4 cells/well, and incubated in DMEM (Dulbecco's Modified Eagle's Medium) medium for 24 hours. After incubation, the medium was replaced with serum-free DMEM media containing 10 ppm of each of dehydroabietic acid (Comparative Example 1), compound K (Comparative Example 2), and a mixture of dehydroabietic acid and compound K (weight ratio of 1:7; Example 1), and then the cells were further incubated for 24 hours. Then, 10 μl of 3-(4,5-dimethylthiazol-2-yl)-2,5-diphenyl tetrazolium (MTT, 5 mg/ml) was added to each well, which was then allowed to stand for 4 hours, followed by removal of the medium. Then, 100 μl of dimethyl sulfoxide solution was added to each well, and the absorbance at 570 nm was measured with a microplate reader. Based on the experiment results, the cell proliferation effect was calculated using the following equation 1. [formula]

Structure (SMILES) | Amount of collagen synthesized (human normal fibroblasts [1]) [ng/2 × 10^4] | Absorbance (570 nm) (human normal fibroblasts [2]) | inhibition at 10 ppm (human normal fibroblasts [2]) [%] | Cell proliferation effect (%) (human normal fibroblasts [3]) | Absorbance (570 nm) (human normal fibroblasts [3])
O=C1O[C@H]([C@@H](O)CO)C(O)=C1O [Ascorbic acid, ascorbic acid] | 186 | – | – | – | –
CC(C)c1ccc2c(c1)CC[C@H]1[C@](C)(C(=O)O)CCC[C@]21C [Comparative Example 1, dehydroabietic acid] | 174 | 0.465 | 28.5 | 53.8 | 0.546
CC(C)=CCC[C@](C)(O[C@@H]1O[C@H](CO)[C@@H](O)[C@H](O)[C@H]1O)[C@H]1CC[C@]2(C)[C@@H]1[C@H](O)C[C@@H]1[C@@]3(C)CC[C@H](O)C(C)(C)[C@@H]3CC[C@]12C [Comparative Example 2, compound K] | 162 | 0.448 | 31.1 | 46.5 | 0.520

Reference: patent US20190192413A1, “SKIN ANTI-AGING COMPOSITION CONTAINING DEHYDROGENATED ABIETIC ACID AND COMPOUND K” (AMOREPACIFIC CORPORATION, priority 2016, published 2019)
